These results are taken from publication PMC12418751, “Structural and functional characterization of IdeC, a novel IgG-specific protease of Streptococcus canis” (Infection and Immunity, 2025).

This experiment addresses T1, IdeC (Immunoglobulin G degrading enzyme of S. canis) (Streptococcus canis, UniProt A0A3P5YAY8).
T1 construct: gene ide; full-length construct 30-339 as printed for the C94S crystal form), His6 tag from pQE30, E. coli M15 pREP, Ni-TED purified, ~35 kDa, mainly monomer; printed PDB entries are of C94S forms
Put plainly: feline and canine IgG cleavage, SDS-PAGE. In kind it is biochemical. The following applies: 2.5 uM inhibitor, 30 min preincubation at room temperature; IgG 37 C 2.5 h; cysteine protease inhibitor, irreversible (general statement).

T1 sequence (A0A3P5YAY8 entry or part of it): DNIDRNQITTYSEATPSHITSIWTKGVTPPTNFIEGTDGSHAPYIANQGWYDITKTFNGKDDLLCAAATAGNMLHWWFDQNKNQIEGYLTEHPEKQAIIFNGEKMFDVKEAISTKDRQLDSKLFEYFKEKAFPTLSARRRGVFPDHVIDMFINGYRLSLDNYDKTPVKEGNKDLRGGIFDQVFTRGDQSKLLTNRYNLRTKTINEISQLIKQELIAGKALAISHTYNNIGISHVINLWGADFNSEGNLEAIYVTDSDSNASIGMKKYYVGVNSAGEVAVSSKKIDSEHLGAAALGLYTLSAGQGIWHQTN

For the molecule `CC(C)C[C@H](NC(=O)[C@@H]1O[C@H]1C(=O)O)C(=O)NCCCCN=C(N)N` [E-64], the “feline and canine IgG cleavage, SDS-PAGE” value was “the cysteine protease inhibitors Iodo and E-64 resulted in weaker cleavage product bands”.
